Experimental data published in ChEMBL document CHEMBL5143523, “Construction and activity evaluation of novel benzodioxane derivatives as dual-target antifungal inhibitors” (Eur J Med Chem, 2022).
Values after ≈ are worked out from the molar mass of the structure shown. Active and inactive are the calls of the source. The rule behind the calls is not given here.

Tests used:
[1] = test system: Mus musculus; experiment: In vivo antifungal activity against Candida albicans ATCC SC5314 infected mouse assessed as reduction in fungal infection region at 4 mg/kg, ip administered ever other day for 12 days; type: functional, organism-based; settings: time 12.0 day
[2] = test system: Candida albicans; experiment: Antifungal activity against fluconazole resistant Candida albicans strain 103 assessed as fungal growth inhibition measured after 72 hrs by CLSI protocol based liquid medium dilution method; type: functional
[3] = Toxicity in mouse infected with Candida albicans ATCC SC5314 assessed as pathological changes in heart at 4 mg/kg, ip administered ever other day for 12 days by hematoxylin and eosin staining based histopathological analysis; type: organism-based; settings: in vivo, 288 h, time 12 day
[4] = Hepatotoxicity in mouse infected with Candida albicans ATCC SC5314 assessed as change in plasma ALT level at 4 mg/kg, ip administered ever other day for 12 days; type: toxicity, organism-based; settings: in vivo, 288 h, time 12 day
[5] = test system: Candida albicans; experiment: Antifungal activity against Candida albicans ATCC 10231 assessed as fungal growth inhibition measured after 72 hrs by CLSI protocol based liquid medium dilution method; type: functional
[6] = test system: Candida albicans; experiment: Antifungal activity against Candida albicans ATCC SC5314 assessed as change in squalene level at 4 ug/ml incubated for 48 hrs by LC-MS analysis; type: functional; settings: dose 4 µg/ml
[7] = test system: Candida albicans; experiment: Induction of apoptosis in Candida albicans ATCC SC5314 cells assessed as early apoptotic cells at 8 ug/ml incubated for 72 hrs by Annexin V-FITC/PI staining based flow cytometry method (reference value: 0.56%); type: functional; settings: dose 8 µg/ml
[8] = test system: Candida albicans; experiment: Antifungal activity against fluconazole resistant Candida albicans strain 17# assessed as fungal growth inhibition measured after 72 hrs by CLSI protocol based liquid medium dilution method; type: functional
[9] = target: T1, Squalene epoxidase ERG1 (Candida albicans, UniProt Q92206); experiment: Inhibition of SE in Candida albicans ATCC SC5314 incubated for 30 mins using squalene as substrate in presence of NADPH by spectrophotometer analysis
T1 sequence (Q92206 whole entry): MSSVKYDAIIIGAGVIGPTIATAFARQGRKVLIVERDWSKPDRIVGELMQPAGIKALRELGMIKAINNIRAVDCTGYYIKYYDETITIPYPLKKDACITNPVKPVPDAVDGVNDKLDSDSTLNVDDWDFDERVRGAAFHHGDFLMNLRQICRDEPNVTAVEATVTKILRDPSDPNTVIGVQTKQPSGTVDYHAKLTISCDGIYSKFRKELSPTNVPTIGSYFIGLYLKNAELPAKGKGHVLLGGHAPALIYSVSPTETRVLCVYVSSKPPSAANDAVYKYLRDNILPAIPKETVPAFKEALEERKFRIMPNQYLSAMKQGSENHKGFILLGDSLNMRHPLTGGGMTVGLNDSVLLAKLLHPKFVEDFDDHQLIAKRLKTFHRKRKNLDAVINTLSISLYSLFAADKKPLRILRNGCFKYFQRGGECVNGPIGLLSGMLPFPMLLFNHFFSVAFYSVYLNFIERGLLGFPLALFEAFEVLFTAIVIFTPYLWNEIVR

[10] = test system: Mus musculus; experiment: In vivo antifungal activity against Candida albicans ATCC SC5314 infected mouse assessed as regular arrangement of endothelial tissue at 4 mg/kg, ip administered ever other day for 12 days by hematoxyin-eosin staining based microscopic analysis; type: functional, organism-based; settings: time 12.0 day
[11] = test system: Candida albicans; experiment: Induction of apoptosis in Candida albicans ATCC SC5314 cells assessed as late apoptotic cells at 8 ug/ml incubated for 72 hrs by Annexin V-FITC/PI staining based flow cytometry method (reference value: 0.12%); type: functional; settings: dose 8 µg/ml
[12] = test system: Nakaseomyces glabratus; experiment: Antifungal activity against Candida glabrata ATCC 0001 assessed as fungal growth inhibition measured after 72 hrs by CLSI protocol based liquid medium dilution method; type: functional
[13] = test system: Candida albicans; experiment: Antifungal activity against fluconazole resistant Candida albicans strain 901 assessed as fungal growth inhibition measured after 72 hrs by CLSI protocol based liquid medium dilution method; type: functional
[14] = target: Lanosterol 14-alpha demethylase (Candida albicans (strain SC5314 / ATCC MYA-2876) (Yeast), UniProt P10613); experiment: Inhibition of CYP51 in Candida albicans ATCC SC5314 incubated for 30 mins using eburicol as substrate in presence of NADPH by HPLC analysis
[15] = Nephrotoxicity in mouse infected with Candida albicans ATCC SC5314 assessed as change in plasma BUN level at 4 mg/kg, ip administered ever other day for 12 days; type: toxicity, organism-based; settings: in vivo, 288 h, time 12 day
[16] = test system: Candida albicans; experiment: Antifungal activity against fluconazole resistant Candida albicans strain 904 assessed as fungal growth inhibition measured after 72 hrs by CLSI protocol based liquid medium dilution method; type: functional
[17] = Drug uptake in fluconazole resistant Candida albicans strain 901 at 4 ug/ml by fluorescence microscopy; type: ADME; settings: dose 4 µg/ml
[18] = test system: Mus musculus; experiment: In vivo antifungal activity against Candida albicans ATCC SC5314 infected mouse assessed as increase in body weight at 4 mg/kg, ip administered ever other day for 12 days; type: functional, organism-based; settings: time 12.0 day
[19] = test system: Pichia kudriavzevii; experiment: Antifungal activity against Candida krusei ATCC 6258 assessed as fungal growth inhibition measured after 72 hrs by CLSI protocol based liquid medium dilution method; type: functional
[20] = test system: Candida albicans; experiment: Antifungal activity against Candida albicans ATCC SC5314 assessed as change in lanosterol level at 4 ug/ml incubated for 48 hrs by LC-MS analysis (reference value: 3.7%); type: functional; settings: dose 4 µg/ml
[21] = test system: Mus musculus; experiment: In vivo antifungal activity against Candida albicans ATCC SC5314 infected mouse model assessed as regular arrangement of intercellular space at 4 mg/kg, ip administered ever other day for 12 days by hematoxyin-eosin staining based microscopic analysis; type: functional, organism-based; settings: time 12.0 day
[22] = test system: Candida albicans; experiment: Antifungal activity against Candida albicans ATCC SC5314 assessed as decrease in ergosterol content at 4 ug/ml incubated for 48 hrs by LC-MS analysis (reference value: 90.6%); type: functional; set-up: scale not given: the % may be the effect or the level left; settings: dose 4 µg/ml
[23] = Toxicity in mouse infected with Candida albicans ATCC SC5314 assessed as pathological changes in liver at 4 mg/kg, ip administered ever other day for 12 days by hematoxylin and eosin staining based histopathological analysis; type: organism-based; settings: in vivo, 288 h, time 12 day
[24] = test system: Candida albicans; experiment: Antifungal activity against fluconazole resistant Candida albicans strain CaR assessed as fungal growth inhibition measured after 72 hrs by CLSI protocol based liquid medium dilution method; type: functional
[25] = test system: Candida tropicalis; experiment: Antifungal activity against Candida tropicalis ATCC 1369 assessed as fungal growth inhibition measured after 72 hrs by CLSI protocol based liquid medium dilution method; type: functional
[26] = test system: Candida albicans; experiment: Induction of apoptosis in Candida albicans ATCC SC5314 cells assessed as necrotic cells at 8 ug/ml incubated for 72 hrs by Annexin V-FITC/PI staining based flow cytometry method (reference value: 3.76%); type: functional; settings: dose 8 µg/ml
[27] = test system: Candida albicans; experiment: Induction of apoptosis in Candida albicans ATCC SC5314 cells assessed as live cells at 8 ug/ml incubated for 72 hrs by Annexin V-FITC/PI staining based flow cytometry method (reference value: 95.56%); type: functional; settings: dose 8 µg/ml
[28] = test system: Candida albicans; experiment: Antifungal activity against fluconazole resistant Candida albicans strain 901 assessed as decrease in fungal cell density at 4 ug/ml by fluorescence microscopy; type: functional, organism-based; settings: dose 4.0 µg/ml
[29] = test system: Mus musculus; experiment: In vivo antifungal activity against Candida albicans ATCC SC5314 infected mouse model assessed as disappearance of pathogenic fungi at 4 mg/kg, ip administered ever other day for 12 days by hematoxyin-eosin staining based microscopic analysis; type: functional, organism-based; settings: time 12.0 day
[30] = Toxicity in mouse infected with Candida albicans ATCC SC5314 assessed as pathological changes in lung at 4 mg/kg, ip administered ever other day for 12 days by hematoxylin and eosin staining based histopathological analysis; type: organism-based; settings: in vivo, 288 h, time 12 day
[31] = Hepatotoxicity in mouse infected with Candida albicans ATCC SC5314 assessed as change in plasma AST level at 4 mg/kg, ip administered ever other day for 12 days; type: toxicity, organism-based; settings: in vivo, 288 h, time 12 day
[32] = Toxicity in mouse infected with Candida albicans ATCC SC5314 assessed as pathological changes in kidney at 4 mg/kg, ip administered ever other day for 12 days by hematoxylin and eosin staining based histopathological analysis; type: organism-based; settings: in vivo, 288 h, time 12 day
[33] = test system: Candida albicans; experiment: Antifungal activity against Candida albicans ATCC SC5314 assessed as change in eburicol level at 4 ug/ml incubated for 48 hrs by LC-MS analysis (reference value: 1.4%); type: functional; settings: dose 4 µg/ml
[34] = test system: Mus musculus; experiment: In vivo antifungal activity against Candida albicans ATCC SC5314 infected mouse model assessed as reduction in nuclear aggregation at 4 mg/kg, ip administered ever other day for 12 days by hematoxyin-eosin staining based microscopic analysis; type: functional, organism-based; settings: time 12.0 day
[35] = test system: Candida albicans; experiment: Antifungal activity against Candida albicans ATCC SC5314 assessed as change in unknown sterol level at 4 ug/ml incubated for 48 hrs by LC-MS analysis (reference value: 4.3%); type: functional; settings: dose 4 µg/ml
[36] = Toxicity in mouse infected with Candida albicans ATCC SC5314 assessed as pathological changes in spleen at 4 mg/kg, ip administered ever other day for 12 days by hematoxylin and eosin staining based histopathological analysis; type: organism-based; settings: in vivo, 288 h, time 12 day
[37] = test system: Aspergillus fumigatus; experiment: Antifungal activity against Aspergillus fumigatus KM8001 assessed as fungal growth inhibition measured after 72 hrs by CLSI protocol based liquid medium dilution method; type: functional
[38] = test system: Candida albicans; experiment: microbe, parasite or virus in culture; settings: Candida albicans, 901, 72 h
Description: Antifungal activity against fluconazole resistant Candida albicans strain 901 assessed as fungal growth inhibition measured after 72 hrs in presence of miconazole by CLSI protocol based liquid medium dilution method

[39] = test system: Candida albicans; experiment: microbe, parasite or virus in culture; settings: Candida albicans, 103, 72 h
Description: Antifungal activity against fluconazole resistant Candida albicans strain 103 assessed as fungal growth inhibition measured after 72 hrs in presence of miconazole by CLSI protocol based liquid medium dilution method

[40] = test system: Candida albicans; experiment: microbe, parasite or virus in culture; settings: Candida albicans, 904, 72 h
Description: Antifungal activity against fluconazole resistant Candida albicans strain 904 assessed as fungal growth inhibition measured after 72 hrs in presence of miconazole by CLSI protocol based liquid medium dilution method

[41] = test system: Candida albicans; experiment: Antifungal activity against fluconazole resistant Candida albicans strain CaR assessed as fungal growth inhibition measured after 72 hrs in presence of miconazole by CLSI protocol based liquid medium dilution method
[42] = test system: Candida albicans; experiment: Antifungal activity against fluconazole resistant Candida albicans strain 17# assessed as fungal growth inhibition measured after 72 hrs in presence of miconazole by CLSI protocol based liquid medium dilution method

Lanosterol 14-alpha demethylase, sequence (P10613 whole entry): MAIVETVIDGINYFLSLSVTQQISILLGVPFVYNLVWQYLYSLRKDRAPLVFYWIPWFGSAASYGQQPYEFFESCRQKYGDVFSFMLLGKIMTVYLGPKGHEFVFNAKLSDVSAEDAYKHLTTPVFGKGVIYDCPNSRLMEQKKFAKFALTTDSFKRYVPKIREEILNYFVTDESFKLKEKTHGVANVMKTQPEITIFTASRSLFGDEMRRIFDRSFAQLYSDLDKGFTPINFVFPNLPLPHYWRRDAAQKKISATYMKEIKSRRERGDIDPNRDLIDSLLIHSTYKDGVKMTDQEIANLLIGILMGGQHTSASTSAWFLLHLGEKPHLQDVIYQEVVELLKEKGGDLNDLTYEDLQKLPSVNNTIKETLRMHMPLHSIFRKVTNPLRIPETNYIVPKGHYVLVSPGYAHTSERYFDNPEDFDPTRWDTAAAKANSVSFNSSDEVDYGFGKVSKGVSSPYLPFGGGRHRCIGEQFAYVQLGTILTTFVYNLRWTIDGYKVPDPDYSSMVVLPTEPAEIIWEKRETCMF

Structure (SMILES) | MIC50 [2] | MIC50 [5] | Activity [6] | Activity [7] | MIC50 [8] | IC50 [9] | Activity [11] | MIC50 [12] | MIC50 [13] | MIC50 [16] | MIC50 [19] | Activity [20] | Activity [22] | MIC50 [24] | MIC50 [25] | Activity [26] | Activity [27] | Activity [33] | Activity [35] | MIC50 [37] | also measured
O=C(N[C@H](Cc1ccccc1)Cn1cncn1)c1ccc2c(c1)OCCO2 | 1 µg/mL (≈ 2.74 µM) | 0.25 µg/mL (≈ 0.686 µM) | 15.3% | 0.38% | 2 µg/mL (≈ 5.49 µM) | 823 nM | 1.62% | 0.25 µg/mL (≈ 0.686 µM) | 1 µg/mL (≈ 2.74 µM) | 2 µg/mL (≈ 5.49 µM) | 0.125 µg/mL (≈ 0.343 µM) | 18.5% | 24.7% | 1 µg/mL (≈ 2.74 µM) | 0.125 µg/mL (≈ 0.343 µM) | 45.83% | 52.17% | 35.3% | 6.2% | 2 µg/mL (≈ 5.49 µM) | Activity [1]: Active; Activity [3]: Non-Toxic; Activity [4]: 54.6 IU/L; Activity [10]: Active; IC50 [14]: 356 nM; Activity [15]: 13.1 mmol/L; Drug uptake [17]: Active; Activity [18]: Active; Activity [21]: Active; Activity [23]: Non-Toxic; Activity [28]: Active; Activity [29]: Active; Activity [30]: Non-Toxic; Activity [31]: 83 IU/L; Activity [32]: Non-Toxic; Activity [34]: Active; Activity [36]: Non-Toxic
CN(C/C=C/c1ccccc1)Cc1cccc2ccccc12 [NAFTIFINE] | 4 µg/mL (≈ 13.9 µM) | 0.5 µg/mL (≈ 1.74 µM) | 52.8% | 0.56% | 2 µg/mL (≈ 6.96 µM) | 317 nM | 1.99% | 1 µg/mL (≈ 3.48 µM) | 2 µg/mL (≈ 6.96 µM) | 4 µg/mL (≈ 13.9 µM) | 0.5 µg/mL (≈ 1.74 µM) | 2.6% | 35.1% | 4 µg/mL (≈ 13.9 µM) | 0.5 µg/mL (≈ 1.74 µM) | 35.85% | 61.6% | 3.7% | 5.8% | 4 µg/mL (≈ 13.9 µM) | MIC50 [38]: 2 µg/mL (≈ 6.96 µM); MIC50 [39]: 2 µg/mL (≈ 6.96 µM); MIC50 [40]: 1 µg/mL (≈ 3.48 µM); MIC50 [41]: 1 µg/mL; MIC50 [42]: 1 µg/mL
